Assay results published in ChEMBL document CHEMBL4002647, “BMS-933043, a Selective α7 nAChR Partial Agonist for the Treatment of Cognitive Deficits Associated with Schizophrenia” (ACS Med Chem Lett, 2017).

What was measured:
[1] = target: Neuronal acetylcholine receptor subunit alpha-7 (Rattus norvegicus, UniProt Q05941); test: Agonist activity at rat alpha7 nAChR expressed in HEK293 cells assessed as increase in Ca2+ flux by Fluo-4 AM dye based FLIPR assay; format: cell-based
[2] = Drug level treated with (2R)-N-(6-(1H-Imidazol-1-yl)-4-pyrimidinyl)-4'H-spiro[4-azabicyclo[2.2.2]octane-2,5'-[1,3]oxazol]-2'-amine

Neuronal acetylcholine receptor subunit alpha-7, sequence (Q05941 whole entry): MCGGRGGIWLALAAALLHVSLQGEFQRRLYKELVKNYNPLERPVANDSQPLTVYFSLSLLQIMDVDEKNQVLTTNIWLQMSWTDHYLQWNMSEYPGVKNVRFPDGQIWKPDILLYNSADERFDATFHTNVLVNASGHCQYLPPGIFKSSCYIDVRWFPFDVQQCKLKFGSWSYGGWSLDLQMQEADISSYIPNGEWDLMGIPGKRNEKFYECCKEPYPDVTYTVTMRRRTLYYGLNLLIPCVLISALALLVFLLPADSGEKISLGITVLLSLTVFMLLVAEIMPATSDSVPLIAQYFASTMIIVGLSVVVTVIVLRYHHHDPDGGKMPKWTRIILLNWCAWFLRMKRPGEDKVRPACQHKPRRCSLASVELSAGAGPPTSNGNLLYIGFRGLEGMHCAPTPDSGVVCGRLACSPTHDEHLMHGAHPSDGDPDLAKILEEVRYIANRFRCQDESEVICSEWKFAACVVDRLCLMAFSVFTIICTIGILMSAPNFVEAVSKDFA

**Q.** Which EC50 [1] does the source give for [O-][N+]12CCC(CC1)C1(CN=C(Nc3cc(-n4ccnc4)ncn3)O1)C2 (single isomer, unassigned) here?
**A.** > 50 µM

**Q.** What about the Drug metabolism [2] of the same molecule?
**A.** Metabolite detected
